Marks after values point to notes of the source that are not given here. Ends that are not written are not given here.
Assays:
DH reaction = test: Delayed hypersensitivity (DH) ear swelling to TCR peptide (Example VI); format: in vivo, Lewis rats; settings: to 50 μg TCR Vβ8(39-59) in Vβ8(39-59)-immunized rats
Method: The Vβ8(39-59)-immunized rats developed both specific antibodies to the Vβ8(39-59) peptide and a delayed hypersensitivity (DH) response of 0.17 mm ear swelling to 50 μg TCR Vβ8(39-59) peptide.

Gp-S49S = target: T1, Gp-S49S (Cavia porcellus, UniProt P25188); test: Direct ELISA, antibody reactivity (Example VII); format: binding, guinea pig
T1 construct: Peptide Gp-S49S defines region 69-84 of GPBP and has a C-terminal glycine; made in house; host or cells: chemical solid-phase synthesis

Gp-(S87-99) = target: T2, Gp-(S87-99) (Cavia porcellus, UniProt P25188); test: Direct ELISA, antibody reactivity (Example VII); format: binding, guinea pig
T2 construct: made in house; host or cells: chemical solid-phase synthesis

popliteal LN cells = test: Proliferation of LN cells after EAE induction and TCR peptide treatment (Table 23); format: cell-based, Lewis rats
Method: The proliferative responses and specificity of T cells in the draining LN (popliteal) of rats treated with TCR Vβ8(39-59) peptide for EAE on day 13 after disease induction were examined (Table 23). On day 0, Lewis rats received an EAE-inducing regimen of GP-BP+CFA SC into their hind footpads. […] On day 20, about 7 days after onset of EAE, popliteal LNs were removed and T cell proliferative activity in response to the indicated antigens or mitogens were tested directly.
Results are shown as net ^3 Hthymidine incorporation of 5 ×

passive EAE [1] = test: Transfer of EAE to naive rats by GPBP-selected T cell lines from treated rats; format: in vivo
DTH response = test: Delayed hypersensitivity responses to TCR peptides, ear swelling (Table 26); format: in vivo, Lewis rats
DTH (ear thickness) = test: DTH to T cells and TCR peptides after clone transfer or peptide immunization (Table 32); format: in vivo, rats; settings: 50 μg TCR peptide
Method: Transfer of DTH and protection: Delayed type hypersensitivity reactions were measured by the ear swelling assay (Offner et al., J. Neuroimmunol. 9: 147)) 24 and 48 h after injection i.d. of 20 μg antigen.
Rats received 5 million activated clone C45569 or clone C5GpBP

[2] = tested on: Vβ8-44-54 reactive T cell clones; test: Specificity of Vβ8-44-54 reactive T cell clones, proliferation (Table 37); format: cell-based, rat
Method: Proliferation assays: Proliferation assays were performed in 96-well microtiter plates. 2×10^4 T cells and 10^6 irradiated thymocytes/well were incubated with stimulation medium only, ConA, or antigen at 37C in 7% CO2. The cultures were incubated for 72 h, the last 18 h in the presence of 0.5 Bq ^3 H-Tdr. The cells were harvested onto glass fiber filters and TCR uptake was assessed by liquid scintillation. Mean CPM wre calculated from triplicate wells. The standard deviation from replicate wells varied <10% from the mean values. In some experiments, azide free antibodies to MHC I (OX-18) or MHC II (OX-6, anti-I-A and OX-17, anti-I-E) were added to the cultures to evaluate which MHC molecules were used to restrict the T cell response to TCR Vβ8-44-54 peptide.
Isolation of Vβ8-44-54 reactive T cell clones. To characterize the anti-TCR peptide response on the clonal level, ten clones were isolated and characterized from the initial T cell line. As is shown in Table 37, each of the clones responded strongly to the Vβ8-44-54 peptide with stimulation indices ranging from 10× to 1300×, and weakly or not at all to the Vβ8.2-39-59 or Vβ8.6-39-59 peptides. Three of the four clones challenged with all three of the peptides responded selectively to the consensus Vβ8-44-54 peptide, whereas only one clone (B7) reflected the T cell line pattern of response characterized by response to Vβ8-44-54 >Vβ8.6-39-59 >Vβ8.2-39-59 (Table 37). Loss of viability of the clones precluded individual testing of EAE-protective activity.

passive EAE [3] = test: Treatment of passively induced EAE with TCR Vβ8 peptides (FIGS. 21A, 22); format: in vivo, rats
[4] = tested on: lymph node cells and Vβ8-44-54 selected T cell line
[5] = TCR day 0, Gp-S(87-99) d. 44, bleed d. 65, 1:320
[6] = TCR peptide d. 0, Gp-S49S d. 48, bleed d. 74, 1:80

DMGHGLRLIHYSYDVNSTEKG [TCR Vβ8(39-59), 21-amino acid CDR2 peptide of rat TCR Vβ8]
delayed hypersensitivity (DH) response, ear swelling (DH reaction): 0.17 mm | Theoretical Absorbance against Gp-S49S normalized to 1:40 (Gp-S49S; TCR d. 0, Gp-S49S d. 48, bleed d. 74): 1750 Absorbance (×10^3) | Antisera Reactivity Against Gp-S49S (Gp-S49S; [5]): 38 Absorbance (×10^3) | Antisera Reactivity Against Gp-S49S (Gp-S49S; [6]): 875 Absorbance (×10^3) | elevation of 26 day antibody responses to Gp-S49S and Gp-S53 (Gp-S49S; preimmunized with TCR peptide vs rats not treated): two to four fold | Theoretical Absorbance against Gp-(S87-99) normalized to 1:40 (Gp-(S87-99); TCR day 0, Gp-S(87-99) d. 44, bleed d. 65): 784 Absorbance (×10^3) | Antisera Reactivity Against Gp-(S87-99) (Gp-(S87-99); [5]): 348 Absorbance (×10^3) | Antisera Reactivity Against Gp-(S87-99) (Gp-(S87-99); [6]): 11 Absorbance (×10^3) | increase of anti-S87-99 responses (Gp-(S87-99); preimmunized with TCR peptide vs not treated): > 4 fold | T Cell Proliferation (popliteal LN cells; LN cells day 20 of Control rats (saline day 13)): 31 cpm × 10^-3 | T Cell Proliferation (popliteal LN cells; LN cells of rats given TCR Vβ 8(39-59) 50 μg ID day 13): 30 cpm × 10^-3 | T Cell Proliferation (popliteal LN cells; LN cells of rats given TCR Vβ 8(39-59) 100 μg SC (in CFA) day 13): 39 cpm × 10^-3 | Passive EAE Severity (passive EAE [1]; 10^7 BP/1st line cells from treated rats): 0 | Passive EAE N (passive EAE [1]; 10^7 GPBP activated BP/1st line cells from treated rats i.p. into naive rats): 0/3 | Ability to Transfer EAE (passive EAE [1]; GPBP-selected T cells of rats given TCR peptide ID day 13): YES | 48 Hour DTH Response (DTH response; GP-BP/CFA immunized rats, ear test Day 12 (EAE onset)): 11 ± 2 | 48 Hour DTH Response (DTH response; Normal or saline/CFA rats, ear test Day 12): 6 ± 3 | 48 Hour DTH Response (DTH response; TCR Vβ8 peptide/CFA immunized rats, ear test Day 30): 36 ± 8 | 48 Hour DTH Response (DTH response; TCR Vβ814 (so in the source) peptide/CFA immunized rats, ear test Day 30): 6 ± 3 | DTH, change in ear thickness 48 h (DTH (ear thickness); Immunization None): 3 ± 1 | DTH, change in ear thickness 48 h (DTH (ear thickness); rats given 5 million C5Gp-BP (Vβ8.2+)): 6 ± 3 | DTH, change in ear thickness 48 h (DTH (ear thickness); rats given C455-69): 17 ± 2 | DTH, change in ear thickness 48 h (DTH (ear thickness); rats immunized with Vβ8.239-59 peptide/CFA): 39 ± 9 | DTH, change in ear thickness 48 h (DTH (ear thickness); rats immunized with Vβ8.639-59 peptide/CFA): 27 ± 4 | Proliferation Response ([2]; Clone B3): 1.1 CPM/1000 | Proliferation Response ([2]; Clone B7): 3 CPM/1000 | Proliferation Response ([2]; Clone B11): 0.7 CPM/1000 | Proliferation Response ([2]; Clone D1): 0.8 CPM/1000 | Proliferation Response ([2]; Line): 102 CPM/1000 | severity and duration of passively induced EAE (passive EAE [3]; EAE induced by Vβ8.2+ T cell lines specific for BP): marked reduction in the severity and duration of EAE | protection from lethal EAE (passive EAE [3]; rat, in vivo): protected all of the recipients from lethal EAE | Response of Lymph Node Cells [4]: 38 ± 3 | Response of T Cell Line [4]: 102 ± 10
